The results in this text go back to ChEMBL document CHEMBL3639376, “IRE-1Œ± inhibitors” (2015).

pIC50: −log10 of the molar value.

In the assay the target is Serine/threonine-protein kinase/endoribonuclease IRE1 (Homo sapiens, UniProt O75460). In words: Inhibition Assay: A fusion protein comprising glutathione S transferase (GST) and human IRE-1alpha (GST-IRE-1alpha) obtained from a 500 ml baculovirus-infected insect cell culture can be used to measure IRE-1alpha activity in vitro. Five ul of a reaction mixture comprising IX reaction buffer (5x reaction buffer is 100 mM Hepes pH 7.5, 250 mM KOAc, 2.5 mM MgCl2), 3 mM DTT, and 0.4% polyethylene glycol water is added to each well of 384 well plates. Twenty-five nanoliters of a 1 mM test compound solution are added to test wells. Three ul of a 128 ng/ml IRE-1alpha preparation are added to each test well and to positive control wells (final concentration 5.82 ng/well). Negative control wells contain only reaction mixture and test compound.After spinning the plates at 1200 rpm for 30 seconds, 3 ul of an IRE-1alpha human mini-XBP-1 mRNA stem-loop substrate 5'-[…]-3' (SEQ ID NO:1), labeled with the fluorescent dye Cy5 at the 5' end and Black Hole Quencher 2.
Serine/threonine-protein kinase/endoribonuclease IRE1, sequence (O75460 whole entry, the tested form may be a part): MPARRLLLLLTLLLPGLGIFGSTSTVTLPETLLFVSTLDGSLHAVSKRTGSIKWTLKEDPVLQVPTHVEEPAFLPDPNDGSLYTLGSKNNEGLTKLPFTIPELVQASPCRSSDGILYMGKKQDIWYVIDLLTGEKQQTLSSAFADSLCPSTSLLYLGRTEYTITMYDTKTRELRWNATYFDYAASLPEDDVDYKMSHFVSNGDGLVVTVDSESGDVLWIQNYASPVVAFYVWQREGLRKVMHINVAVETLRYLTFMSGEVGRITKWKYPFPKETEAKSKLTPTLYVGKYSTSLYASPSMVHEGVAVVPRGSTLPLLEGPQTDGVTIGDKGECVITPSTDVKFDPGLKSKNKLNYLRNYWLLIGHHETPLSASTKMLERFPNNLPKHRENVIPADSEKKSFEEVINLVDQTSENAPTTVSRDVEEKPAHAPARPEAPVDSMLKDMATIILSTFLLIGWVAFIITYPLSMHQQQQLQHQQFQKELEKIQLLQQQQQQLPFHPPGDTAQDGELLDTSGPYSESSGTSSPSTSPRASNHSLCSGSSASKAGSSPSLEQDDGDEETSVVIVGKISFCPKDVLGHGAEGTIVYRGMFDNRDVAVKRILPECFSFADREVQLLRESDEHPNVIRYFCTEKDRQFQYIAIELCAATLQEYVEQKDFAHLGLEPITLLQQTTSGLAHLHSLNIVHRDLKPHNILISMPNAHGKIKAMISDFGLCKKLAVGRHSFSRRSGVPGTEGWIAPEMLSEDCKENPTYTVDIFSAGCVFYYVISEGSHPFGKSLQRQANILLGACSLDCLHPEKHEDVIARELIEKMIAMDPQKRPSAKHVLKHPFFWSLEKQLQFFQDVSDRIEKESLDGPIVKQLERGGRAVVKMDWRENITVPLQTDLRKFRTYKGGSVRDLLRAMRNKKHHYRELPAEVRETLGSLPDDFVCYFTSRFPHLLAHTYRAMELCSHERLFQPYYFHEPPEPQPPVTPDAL
In the case of `Cc1c(Br)c(=O)oc2c(C=O)c(O)ccc12`, the pIC50 is greater than 7.00.

As for `O=Cc1c(O)ccc2cc(-c3ccc(Br)cc3)c(=O)oc12`, the pIC50 is greater than 7.00. Consider `Cc1c(-c2ccc(C(=O)N3CCN(C)CC3)cc2)c(=O)oc2c(C=O)c(O)ccc12`, for which the pIC50 was greater than 7.00. For the compound `CCN(CC)CCc1c(C)c2ccc(O)c(C=O)c2oc1=O`, the negative logarithm of the IC50 (pIC50) is greater than 7.00. For `COc1cc2c(C)c(Br)c(=O)oc2c(C=O)c1O`, the pIC50 was greater than 7.00. Regarding `Cc1c(Br)c(=O)oc2c(C=O)c(O)c(F)cc12`, the pIC50 is greater than 6.00. With `Cc1c(-c2cccc(C(=O)N3CCOCC3)c2)c(=O)oc2c(C=O)c(O)ccc12`, the pIC50 was greater than 7.00. `Cc1c(Cc2ccccc2)c(=O)oc2c(C=O)c(O)c(O)cc12`: the pIC50 is greater than 7.00. In the case of `Cc1c(-c2ccc(C(=O)N3CCCC3)cc2)c(=O)oc2c(C=O)c(O)ccc12`, the negative-log IC50 (pIC50) is greater than 6.00. For the compound `Cc1c(-c2ccc(C(=O)N3CCC(C)CC3)cc2)c(=O)oc2c(C=O)c(O)ccc12`, the pIC50 is greater than 6.00. Consider `Cc1c(-c2cccc(C(=O)N3CCCC3)c2)c(=O)oc2c(C=O)c(O)ccc12`, for which the pIC50 is greater than 7.00. For `Cc1cc(=O)oc2c(C=O)c(O)c(F)cc12`, the pIC50 is greater than 6.00.

For the compound `COc1cc2c(C)c(-c3ccc(C(=O)N4CCOCC4)cc3)c(=O)oc2c(C=O)c1O`, the pIC50 was greater than 6.00. Take `CN1CCN(CCC(=O)N2CCc3c(ccc(O)c3C=O)C2)CC1`: the pIC50 is less than 5.00.

`Cc1nc(N2CCc3c(ccc(O)c3C=O)C2)sc1C(=O)N1CCOCC1`: the negative logarithm of the IC50 (pIC50) was greater than 5.00.

On to `O=Cc1c(O)ccc2nc(-c3cccc(C(=O)N4CCOCC4)c3)ccc12`, for which the pIC50 was greater than 6.00.

For the compound `CC1CCN(C(=O)c2ccc(-c3ccc4c(C=O)c(O)ccc4n3)cc2)CC1`, the pIC50 was greater than 7.00. In the case of `O=Cc1c(O)ccc2nc(-c3ccc(C(=O)N4CCCC4)cc3)ccc12`, the pIC50 was greater than 7.00. In the case of `O=Cc1c(O)ccc2nc(N3CCC(NC(=O)CN4CCOCC4)C3)ccc12` (stereo not given), the pIC50 was greater than 7.00.

As to `CC(=O)NC1CCN(c2ccc3c(C=O)c(O)ccc3n2)C1` (stereo not given), the pIC50 was greater than 7.00. On to `CN1CCN(C2CCN(c3nc4ccc(O)c(C=O)c4s3)C2)CC1` (stereo not given), for which the pIC50 was greater than 7.00.

Regarding `CC(C)N1CCN(c2nc3ccc(O)c(C=O)c3s2)CC1`, the pIC50 was greater than 7.00. On to `CN1CCN(C(=O)c2ccc(-c3nc4ccc(O)c(C=O)c4s3)s2)CC1`, for which the pIC50 was greater than 7.00. `CC1CCN(C(=O)c2ccc(-c3nc4ccc(O)c(C=O)c4s3)cc2)CC1`: the pIC50 was greater than 7.00. For `O=Cc1c(O)ccc2nc(-c3ccc(C(=O)O)cc3)[nH]c12`, the negative-log IC50 (pIC50) was greater than 6.00. On to `COC(=O)c1ccc(-c2nc3ccc(O)c(C=O)c3[nH]2)cc1`, for which the pIC50 was greater than 6.00. In the case of `O=Cc1c(O)ccc2nc(-c3ccc(C(=O)NCCN4CCOCC4)cc3)[nH]c12`, the pIC50 is greater than 7.00. As to `O=Cc1c(O)ccc2nc(-c3ccc(C(=O)N4CCOCC4)cc3)[nH]c12`, the pIC50 is greater than 7.00. For `CN1CCN(C(=O)c2ccc(-c3nc4ccc(O)c(C=O)c4[nH]3)cc2)CC1`, the pIC50 was greater than 7.00.

For the compound `Cc1c(CCC(=O)N2CCOCC2)c(=O)oc2c(C=O)c(O)ccc12`, the pIC50 is greater than 7.00.

The term pIC50 denotes the negative decadic logarithm of the IC50, by convention in mol/L.
